In series [1] the test system is off-target kinase. The following applies: literature; cited from earlier work.
The test system of series [2] is bleomycin-induced lung fibrosis. Description: bleomycin-induced lung fibrosis, prevention model. It counts as in vivo, C57BL/6 mice. The following applies: for lung damage (Ashcroft score): day 23, vs vehicle; for airways resistance (AHR): vs vehicle. As to the method: (§1) FIG. 1. Protocols used to assess the ability of the compound of Formula I to prevent or treat lung fibrosis induced by intratracheal bleomycin (30 μl; 0.05 U/mouse) or PBS (30 μl; vehicle control).
FIG. 3. Prevention Protocol. a) Measurement of mouse lung fibrosis on day 23 after treatment with PBS, bleomycin and vehicle, bleomycin and the compound of formula I 40 mg/kg or 80 mg/kg (n=8 mice per group). (a) The Ashcroft score was used to obtain a semi quantitative analysis of fibrosis (n=4 mice per group). (b) Acid-soluble collagen content in the mouse lung (n=8 mice per group).
(§2) FIG. 5. Measurements of airways hyper-responsiveness (AHR) after methacholine challenge in the mouse lung. Panels (a)-(d) prevention protocol at day 23 after a single intra-tracheal dose with PBS or bleomycin and oral dosing with the compound of formula I as indicated. Panels (e)-(h) treatment protocol at day 22 after a single intra-tracheal dose with PBS or bleomycin and oral dose with the compound of formula I as indicated. Panels (a, e) show airways resistance, (b, f) transpulmonary resistance, (c, g) elastance, and (d, h) compliance following challenge with 10 mg/ml methacholine.
(§3) Lung fibrosis in female C57BL/6 mice aged between 6-8 weeks (ARC, Perth, Australia) was induced by a single intra-tracheal dose of bleomycin (0.05 U/mouse). Control mice received 30 μl of buffered saline.
Mice in the prevention study were dosed orally once daily from 24 hours post bleomycin administration until day 22 with either 200 μl of vehicle (Sterile water containing 0.5% (w/v) hydroxypropylmethylcellulose, 0.5% (v/v) benzyl alcohol and 0.4% (v/v) Tween 80), or the compound of Formula I at a dosage of 40 mg/kg or 80 mg/kg by oral gavage.
(§4) There were eight mice per group for all experiments and all mice were weighed daily during administration of the treatments.

Series [3] concerns dog hepatocytes. Briefly: metabolites upon exposure to dog hepatocytes.
The subject of series [4] is rat hepatocytes. Briefly: metabolites upon exposure to rat hepatocytes.
Series [5] has as its system bleomycin-induced lung fibrosis. Briefly: bleomycin-induced lung fibrosis, treatment model. It counts as in vivo, C57BL/6 mice. As to the method:
as §1
FIG. 4. […] (a) The Ashcroft score was used to obtain a semi quantitative analysis of fibrosis (n=4 mice per group). (b) Acid-soluble collagen content in the mouse lung (n=8 mice per group).
as §2, §3, §4

The nature of series [6]: exposure following oral dosing in dogs.
Series [7] deals with common cytochrome P450s. Briefly: inhibition of common cytochrome P450s.
The subject of series [8] is primate hepatocytes. Description: metabolites upon exposure to primate hepatocytes.
For series [9], the system named is 467 other kinases. Description: KINOMEScan assay. The series is classed as binding. Conditions: tested at 1 micromolar; compared to 467 other kinases.
A short description of series [10]: exposure following oral dosing in rats.
The test system of series [11] is human hepatocytes. Description: metabolites upon exposure to human hepatocytes.
Series [12] can be described thus: exposure following oral dosing in mice.
For series [13] the following is noted: patients with IPF; cited from earlier work.
In series [14] the test system is idiopathic pulmonary fibrosis. Conditions: cited from earlier work; for reduction in the rate of decline in FVC: patients with mild or moderate FVC impairment at baseline, over 1 year of treatment.

Each structure is given as a SMILES string.

The text below walks through data of patent US12708624B2, “Methods of treating pulmonary fibrosis” (Amplia Therapeutics Limited, priority 2020, dated 2026).

For the molecule `CN(c1ncccc1CNc1nc(Nc2ccc3c(c2)CC(=O)N3)ncc1C(F)(F)F)S(C)(=O)=O` [PF-562,271], in series [1], the off-target kinase activity result is given as “significant off-target kinase activity”.
Take `CNC(=O)c1ccccc1Nc1nc(Nc2ccc(N3CCOCC3)cc2OC)ncc1Cl` [TAE226]: in [1], the off-target kinase activity entry is given as “significant off-target kinase activity”.
`COc1cc(C2CCN(C)CC2)ccc1Nc1ncc(C(F)(F)F)c(CCc2ccccc2CC(N)=O)n1` [compound of Formula I]: the “other measures of AHR (transpulmonary resistance, elastance, compliance)” value in series [2] (10 mg/ml methacholine) is given as “did not significantly inhibit other measures of AHR”. Besides, the “lung damage (Ashcroft score)” value is on record as “attenuated bleomycin-induced lung damage” in [2] (40 mg/kg oral once daily); “not at 80 mg/kg attenuated bleomycin-induced lung damage” in [2] (80 mg/kg oral once daily); “did not significantly alter bleomycin-induced lung damage” in series [5] (dosing from day 7 after bleomycin, day 22, vs vehicle). In addition, the “airways resistance (AHR)” value in series [2] (40 mg/kg, 10 mg/ml methacholine) was “significantly decreased airways resistance”; in series [2] (80 mg/kg, 10 mg/ml methacholine), “significantly decreased airways resistance”; in [5] (10 mg/ml methacholine, vs vehicle), “no effect on airways resistance”. Besides, the unique metabolites entry in [3], in series [4], in series [8] and in series [11] was “no unique metabolites” each time. Also, the “all other measures of AHR (transpulmonary resistance, elastance, compliance)” value in [5] (dosing from day 7 after bleomycin, 10 mg/ml methacholine, vs vehicle) is on record as “effectively reversed the AHR”. Further, the exposure dose proportionality entry in [6], in [10] and in [12] was “dose-proportional exposures” in each case. Moreover, in series [7], the “inhibition of common cytochrome P450s” value is “no detectable inhibition”. This molecule registered an S10 selectivity score in series [9] of 0.02.
Take `COC(=O)c1ccc2c(c1)NC(=O)/C2=C(\Nc1ccc(N(C)C(=O)CN2CCN(C)CC2)cc1)c1ccccc1` [nintedanib]: the “side effects / most common adverse effects” value in series [13] is “nausea and diarrhea”. The “deterioration of FVC on extended treatment” value in series [14] (extended treatment for up to four years) is given as “sustained decline in deterioration of FVC”. In addition, in [14], the “reduction in the rate of decline in FVC” value is “approximately 50%”.
In the case of `Cc1ccc(=O)n(-c2ccccc2)c1` [pirfenidone], in series [13], the “side effects / most common adverse effects” value was “diarrhea, photosensitivity and rash”. Moreover, the “reduction in the rate of decline in FVC” value in series [14] was “approximately 50%”.
